In patent publication US20250333424A1, “ANTIVIRAL COMPOUNDS” (Gilead Sciences, Inc., priority 2024, published 2025):

tested on: monocytic THP1 cells infected with HIV VSV-G pseudotyped GFP-NEF reporter virus; assay: cells; format: cell-based; conditions: Human immunodeficiency virus 1, THP-1, 24 h

Point of comparison: Cc1cc(/C=C/C#N)cc(C)c1Oc1nc(NC23CC(C#N)(C2)C3)nc2[nH]cc(C)c12 [Compound 302, (E)-3-((4-(4-(2-cyanovinyl)-2,6-dimethylphenoxy)-5-methyl-7H-pyrrolo[2,3-d]pyrimidin-2-yl)amino)bicyclo[1.1.1]pentane-1-carbonitrile], EC50 211 nM. Against it:
- Cc1cc(/C=C/C#N)cc(C)c1Oc1nc(NC23CC(C#N)(C2)C3)nc2c(=O)n(C)n(C(F)F)c12 [Compound 292, (E)-3-((7-(4-(2-cyanovinyl)-2,6-dimethylphenoxy)-1-(difluoromethyl)-2-methyl-3-oxo-2,3-dihydro-1H-pyrazolo[4,3-d]pyrimidin-5-yl)amino)bicyclo[1.1.1]pentane-1-carbonitrile] — 3.6-fold lower, 58.8 nM
- COc1n[nH]c2c(Oc3c(C)cc(/C=C/C#N)cc3C)nc(NC34CC(C#N)(C3)C4)nc12 [Compound 293, (E)-3-((7-(4-(2-cyanovinyl)-2,6-dimethylphenoxy)-3-methoxy-1H-pyrazolo[4,3-d]pyrimidin-5-yl)amino)bicyclo[1.1.1]pentane-1-carbonitrile] — 3.7-fold lower, 56.3 nM
- CCOc1nn(CC)c2c(Oc3c(C)cc(/C=C/C#N)cc3C)nc(NC34CC(C#N)(C3)C4)nc12 [Compound 294, (E)-3-((7-(4-(2-cyanovinyl)-2,6-dimethylphenoxy)-3-ethoxy-1-ethyl-1H-pyrazolo[4,3-d]pyrimidin-5-yl)amino)bicyclo[11.1.1]pentane-1-carbonitrile] — 9.1-fold lower, 23.3 nM
- Cc1cc(/C=C/C#N)cc(C)c1Oc1nc(NC23CC(C#N)(C2)C3)nc2c(=O)n3n(c12)CCC3 [Compound 295, (E)-3-((4-(4-(2-cyanovinyl)-2,6-dimethylphenoxy)-10-oxo-7,8-dihydro-6H,10H-pyrazolo[1′,2′:1,2]pyrazolo[4,3-d]pyrimidin-2-yl)amino)bicyclo[1.1.1]pentane-1-carbonitrile] — 3.8-fold lower, 55.3 nM
- Cc1cc(/C=C/C#N)cc(C)c1Oc1nc(NC23CC(C#N)(C2)C3)nc2snc(C)c12 [Compound 296, (E)-3-((4-(4-(2-cyanovinyl)-2,6-dimethylphenoxy)-3-methylisothiazolo[5,4-d]pyrimidin-6-yl)amino)bicyclo[1.1.1]pentane-1-carbonitrile] — 3.5-fold lower, 59.5 nM
- Cc1cc(/C=C/C#N)cc(C)c1Oc1nc(NC23CC(C#N)(C2)C3)nc2c1c(C)n[s+]2[O-] (centres unmarked) [Compound 297, (E)-3-((4-(4-(2-cyanovinyl)-2,6-dimethylphenoxy)-3-methyl-1-oxidoisothiazolo[5,4-d]pyrimidin-6-yl)amino)bicyclo[1.1.1]pentane-1-carbonitrile] — within 1.5-fold, 159 nM
- CCOc1nc2nc(NC34CC(C#N)(C3)C4)nc(Oc3c(C)cc(/C=C/C#N)cc3C)c2n1C [Compound 298, (E)-3-((6-(4-(2-cyanovinyl)-2,6-dimethylphenoxy)-8-ethoxy-7-methyl-7H-purin-2-yl)amino)bicyclo[1.1.1]pentane-1-carbonitrile] — 2.4-fold lower, 87.3 nM
- Cc1cc(/C=C/C#N)cc(C)c1Oc1nc(NC23CC(C#N)(C2)C3)nc2nn3ccccc3c12 [Compound 299, (E)-3-((4-(4-(2-cyanovinyl)-2,6-dimethylphenoxy)pyrido[1′,2′:1,5]pyrazolo[3,4-d]pyrimidin-2-yl)amino)bicyclo[1.1.1]pentane-1-carbonitrile] — 5.3-fold lower, 40.1 nM
- Cc1cc(/C=C/C#N)cc(C)c1Oc1nc(NC23CC(C#N)(C2)C3)nc2occ(C)c12 [Compound 300, (E)-3-((4-(4-(2-cyanovinyl)-2,6-dimethylphenoxy)-5-methylfuro[2,3-d]pyrimidin-2-yl)amino)bicyclo[1.1.1]pentane-1-carbonitrile] — 2.4-fold lower, 87.6 nM
- Cc1cc(/C=C/C#N)cc(C)c1Oc1nc(NC23CC(C#N)(C2)C3)nc2nn3c(c12)OCCC3 [Compound 301, (E)-3-((4-(4-(2-cyanovinyl)-2,6-dimethylphenoxy)-7,8-dihydro-6H-pyrimido[4′,5′:3,4]pyrazolo[5,1-b][1,3]oxazin-2-yl)amino)bicyclo[1.1.1]pentane-1-carbonitrile] — 4.2-fold lower, 50.7 nM
- Cc1cc(/C=C/C#N)cc(C)c1Oc1nc(NC23CC(C#N)(C2)C3)nc2[nH]c(C)c(C)c12 [Compound 303, (E)-3-((4-(4-(2-cyanovinyl)-2,6-dimethylphenoxy)-5,6-dimethyl-7H-pyrrolo[2,3-d]pyrimidin-2-yl)amino)bicyclo[1.1.1]pentane-1-carbonitrile] — within 1.5-fold, 232 nM
- Cc1cc(/C=C/C#N)cc(C)c1Oc1nc(NC23CC(C#N)(C2)C3)nc2nn(CC#N)cc12 [Compound 304, (E)-3-((2-(cyanomethyl)-4-(4-(2-cyanovinyl)-2,6-dimethylphenoxy)-2H-pyrazolo[3,4-d]pyrimidin-6-yl)amino)bicyclo[1.1.1]pentane-1-carbonitrile] — 2-fold lower, 107 nM
- Cc1cc(/C=C/C#N)cc(C)c1Oc1nc(NC23CC(C#N)(C2)C3)nc2nn(CCO)cc12 [Compound 305, (E)-3-((4-(4-(2-cyanovinyl)-2,6-dimethylphenoxy)-2-(2-hydroxyethyl)-2H-pyrazolo[3,4-d]pyrimidin-6-yl)amino)bicyclo[1.1.1]pentane-1-carbonitrile] — 4.7-fold lower, 45 nM
- Cc1cc(/C=C/C#N)cc(C)c1Oc1nc(NC23CC(C#N)(C2)C3)nc2c1C1(C)O[C@H](C)CN1C2=O (stereo partly drawn) [Compound 308, 3-(((6R)-4-(4-((E)-2-cyanovinyl)-2,6-dimethylphenoxy)-4b,6-dimethyl-9-oxo-4b,6,7,9-tetrahydrooxazolo[3′,2′:1,5]pyrrolo[3,4-d]pyrimidin-2-yl)amino)bicyclo[1.1.1]pentane-1-carbonitrile] — 3.5-fold lower, 60.1 nM
- Cc1cc(/C=C/C#N)cc(C)c1Oc1nc(NC23CC(C#N)(C2)C3)nc2c1[C@H](C)N(c1cnn(C)c1)C2=O [Compound 312, (S,E)-3-((4-(4-(2-cyanovinyl)-2,6-dimethylphenoxy)-5-methyl-6-(1-methyl-1H-pyrazol-4-yl)-7-oxo-6,7-dihydro-5H-pyrrolo[3,4-d]pyrimidin-2-yl)amino)bicyclo[1.1.1]pentane-1-carbonitrile] — 14-fold lower, 15.1 nM
- Cc1cc(/C=C/C#N)cc(C)c1Oc1nc(NC23CC(C#N)(C2)C3)nc2c1[C@@H](C)N(c1cnn(C)c1)C2=O [Compound 313, (R,E)-3-((4-(4-(2-cyanovinyl)-2,6-dimethylphenoxy)-5-methyl-6-(1-methyl-1H-pyrazol-4-yl)-7-oxo-6,7-dihydro-5H-pyrrolo[3,4-d]pyrimidin-2-yl)amino)bicyclo[1.1.1]pentane-1-carbonitrile] — 2.2-fold higher, 468 nM
- Cc1cc(/C=C/C#N)cc(C)c1Oc1nc(NC23CC(C#N)(C2)C3)nc2c1C1(C)OCCCN1C2=O (centres unmarked) [Compound 314, (E)-3-((4-(4-(2-cyanovinyl)-2,6-dimethylphenoxy)-4b-methyl-10-oxo-4b,7,8,10-tetrahydro-6H-pyrimido[5′,4′:3,4]pyrrolo[2,1-b][1,3]oxazin-2-yl)amino)bicyclo[1.1.1]pentane-1-carbonitrile] — 8.3-fold lower, 25.3 nM
- Cc1cc(/C=C/C#N)cc(C)c1Oc1nc(NC23CC(C#N)(C2)C3)nc2c1C(C)N(CC#N)C2=O (centres unmarked) [Compound 315, (E)-3-((6-(cyanomethyl)-4-(4-(2-cyanovinyl)-2,6-dimethylphenoxy)-5-methyl-7-oxo-6,7-dihydro-5H-pyrrolo[3,4-d]pyrimidin-2-yl)amino)bicyclo[1.1.1]pentane-1-carbonitrile] — within 1.5-fold, 188 nM
- Cc1cc(/C=C/C#N)cc(C)c1Oc1nc(NC23CC(C#N)(C2)C3)nc2c1C(C)(O)N(CC#N)C2=O (centres unmarked) [Compound 316, (E)-3-((6-(cyanomethyl)-4-(4-(2-cyanovinyl)-2,6-dimethylphenoxy)-5-hydroxy-5-methyl-7-oxo-6,7-dihydro-5H-pyrrolo[3,4-d]pyrimidin-2-yl)amino)bicyclo[1.1.1]pentane-1-carbonitrile] — 2.7-fold lower, 77.5 nM
- CCc1cc(/C=C/C#N)cc(Cl)c1Oc1nc(NC23CC(C#N)(C2)C3)nc2[nH]nc(C)c12 [Example 1, (E)-3-((4-(2-chloro-4-(2-cyanovinyl)-6-ethylphenoxy)-3-methyl-1H-pyrazolo[3,4-d]pyrimidin-6-yl)amino)bicyclo[1.1.1]pentane-1-carbonitrile] — 4.5-fold lower, 46.7 nM
- Cc1cc(/C=C/C#N)cc(C)c1Oc1nc(NC23CC(C#N)(C2)C3)nc2c1C1(C)OCC3(CCC3)CN1C2=O (centres unmarked) [Example 198, (E)-3-((4′-(4-(2-cyanovinyl)-2,6-dimethylphenoxy)-4b′-methyl-10′-oxo-4b′,10′-dihydro-6′H,8′H-spiro[cyclobutane-1,7′-pyrimido[5′,4′:3,4]pyrrolo[2,1-b][1,3]oxazin]-2′-yl)amino)bicyclo[1.1.1]pentane-1-carbonitrile] — 1.8-fold lower, 115 nM
- Cc1cc(/C=C/C#N)cc(C)c1Oc1nc(NC23CC(C#N)(C2)C3)nc2c1C1(C)OCC3(COC3)CN1C2=O (centres unmarked) [Example 199, (E)-3-((4′-(4-(2-cyanovinyl)-2,6-dimethylphenoxy)-4b′-methyl-10′-oxo-4b′,10′-dihydro-6′H,8′H-spiro[oxetane-3,7′-pyrimido[5′,4′:3,4]pyrrolo[2,1-b][1,3]oxazin]-2′-yl)amino)bicyclo[1.1.1]pentane-1-carbonitrile] — 4.3-fold lower, 49 nM
- Cc1cc(/C=C/C#N)cc(C)c1Oc1nc(NC23CC(C#N)(C2)C3)nc2c1C1(C)OCC3(CCOCC3)CN1C2=O (centres unmarked) [Example 200, (E)-3-((4′-(4-(2-cyanovinyl)-2,6-dimethylphenoxy)-4b′-methyl-10′-oxo-2,3,4b′,5,6,10′-hexahydro-6′H,8′H-spiro[pyran-4,7′-pyrimido[5′,4′:3,4]pyrrolo[2,1-b][1,3]oxazin]-2′-yl)amino)bicyclo[1.1.1]pentane-1-carbonitrile] — within 1.5-fold, 175 nM
- Cc1cc(/C=C/C#N)cc(C)c1Oc1nc(NC23CC(C#N)(C2)C3)nc2c1C1(C)OC[C@@H](F)CN1C2=O (stereo partly drawn) [Example 201, 3-(((7S)-4-(4-((E)-2-cyanovinyl)-2,6-dimethylphenoxy)-7-fluoro-4b-methyl-10-oxo-4b,7,8,10-tetrahydro-6H-pyrimido[5′,4′:3,4]pyrrolo[2,1-b][1,3]oxazin-2-yl)amino)bicyclo[1.1.1]pentane-1-carbonitrile] — 2.4-fold lower, 88.6 nM
- Cc1cc(/C=C/C#N)cc(C)c1Oc1nc(NC23CC(C#N)(C2)C3)nc2c1C1(C)OC[C@H](F)CN1C2=O (stereo partly drawn) [Example 202, 3-(((7R)-4-(4-((E)-2-cyanovinyl)-2,6-dimethylphenoxy)-7-fluoro-4b-methyl-10-oxo-4b,7,8,10-tetrahydro-6H-pyrimido[5′,4′:3,4]pyrrolo[2,1-b][1,3]oxazin-2-yl)amino)bicyclo[1.1.1]pentane-1-carbonitrile] — 11-fold lower, 18.9 nM
